Measured values: patent publication US20170246227A1, “COMBINATION COMPRISING SPIRULINA AND PALMITOYLETHANOLAMIDE AND/OR SALTS OR PHARMACEUTICALLY ACCEPTABLE DERIVATIVES THEREOF AND THEIR FORMULATIONS, FOR USE IN THE PREVENTION AND/OR IN THE TREATMENT OF HYPERACTIVATED TISSUE CONDITIONS” (priority 2014, published 2017)

Key:
Type in all cases: in vivo, human
[1] = system: patients suffering from tinnitus; assay: Clinical study of spirulina, PEA and their combination in the treatment of tinnitus; settings: 2 patients per group, oral tablets 2x2/day for 5 days then 1x2/day for 10 days; PEA 350 mg and/or spirulina 650 mg per tablet; combination 65% spirulina, 35% PEA
Description: A clinical study was performed to test the synergistic effect of the combination of spirulina (used as dry extract) and palmitoylethanolamide (PEA) in the treatment of tinnitus.
In the study, six patients were treated, comprising both men and women, with a mean age of 49.6 years (person, person, person, person, person, […] women), who had been suffering from tinnitus for at least one year. […]
The improvements regarding the tinnitus were declared by patients, while the improvement in hearing was measured via an audiometric test, carried out before and after administration of the combination in the invention. […]

[2] = system: patients suffering from age-related macular degeneration; assay: Clinical study in senile macular degeneration, Amsler test before and after treatment; settings: 1 patient each, tablet 4x/day for 10 days then 2x/day for 30 days; PEA 450 mg and/or spirulina 550 mg per tablet; combination 55% spirulina, 45% PEA
Description: A clinical study was performed to test the synergistic effect of the combination of spirulina (used as dry extract) and PEA in the treatment of senile macular degeneration.
In the study, three patients were treated, comprising both men and women, who were suffering from age-related macular degeneration with the presence of macular drusen, i.e. localised deposits between the retinal pigment epithelium (RPE) and the Bruch membrane, together with geographic atrophy, characterised by RPE cell death and atrophy of the overlying photoreceptors.
All the patients underwent an assessment with the Amsler test, prior to administration of the combination of spirulina and PEA. All three patients presented macular degeneration with distortion (metamorphopsia) or line breaks with an average degree of macular degeneration. […]

[3] = system: patients with praecordial pain of cardiac origin (angina pectoris); assay: Clinical study in angina pectoris (chest pain), stress ECG; settings: 1 patient each, PEA 300 mg and/or spirulina 700 mg per tablet, combination 70% spirulina, 30% PEA
Description: A clinical study was performed to test the synergistic effect of the combination of spirulina (used as dry extract) and PEA in the treatment of angina pectoris (chest pain).
In the study, three patients were treated, comprising both men and women who suffered from praecordial pain of cardiac origin. Upon undergoing a stress ECG, all the patients presented anginal pain during the stress and all were undergoing specific treatments (antihypertensives, beta blockers), which—nevertheless—were unable to fully control the aforesaid symptoms. […]

[4] = system: patients with peripheral neuropathy of diabetic origin; assay: Clinical study in diabetic peripheral neuropathy: nerve conduction by neurological tuning fork, biothesiometer and Achilles reflex; settings: 1 patient each, combination 35% spirulina, 65% PEA
Description: A clinical study was performed to test the synergistic effect of the combination of spirulina (used as dry extract) and PEA in the treatment of peripheral neuropathy in diabetics.
In the study, three patients were treated, comprising both men and women who suffered from peripheral neuropathy of diabetic origin. All the patients presented the classic symptoms of peripheral neuropathy, i.e. the classic symptoms consisting of paraesthesias, the sensation of ‘walking on cotton wool’, insensitivity to heat and/or cold, etc., and all the patients were undergoing specific treatments to control glycaemic values, in particular oral hypoglycaemic agents. The patients' glycaemia was tested, both at the beginning and the end of the study, to see if taking the product influenced glycaemic control in any way. All the patients had mean fasting glycaemia values of approximately 140 to 165 mg/dl. […]

[5] = Fasting glycaemia at beginning and end of the diabetic peripheral neuropathy study; settings: 1 patient each, 35 days, on oral hypoglycaemic agents; combination 35% spirulina, 65% PEA
Description: In the study, three patients were treated, comprising both men and women who suffered from peripheral neuropathy of diabetic origin. All the patients presented the classic symptoms of peripheral neuropathy, i.e. the classic symptoms consisting of paraesthesias, the sensation of ‘walking on cotton wool’, insensitivity to heat and/or cold, etc., and all the patients were undergoing specific treatments to control glycaemic values, in particular oral hypoglycaemic agents. The patients' glycaemia was tested, both at the beginning and the end of the study, to see if taking the product influenced glycaemic control in any way. […]

[6] = system: diabetic patients with altered renal functions; assay: Clinical study in altered renal functions in diabetics: creatinine value at beginning and end
Description: A clinical study was performed to test the synergistic effect of the combination of spirulina (used as dry extract) and PEA in the treatment of altered renal functions, preferably in diabetics.
In the study, three patients were treated, comprising both men and women who suffered from diabetes. All patients presented altered renal functions, evidenced by the creatinine value, i.e. a creatinine value of over 4 mg/dl (normal values range from 0.7 to 1.3 mg/dl). All the patients were undergoing specific treatments (conventional drugs, such as Decadurabolin, etc.) which, nevertheless, were unable to control the renal dysfunction. The patients' creatinine values were tested, both at the beginning and the end of the clinical study assessment.
In accordance with the present invention, the patients were treated according to the following schema: • the first patient was treated with a tablet comprising 650 mg of PEA, administered four times a day, for a daily total of 2,600 mg of PEA, for a duration of 5 days; next, the same patient was treated with one tablet, comprising 650 mg of PEA, administered twice a day, for a daily total of 1,300 mg of PEA, for a duration of 30 days; • the second patient was treated with a tablet comprising 350 mg of spirulina, administered four times a day, for a daily total of 1,400 mg of spirulina, for a duration of 5 days; next, the same patient was treated with one tablet, comprising 350 mg of spirulina, administered twice a day, for a daily total of 700 mg of spirulina, for a duration of 30 days; • next, the third patient was treated with one tablet, comprising 350 mg of spirulina and 650 mg of PEA, administered four times a day, for a daily total of 1,400 mg of spirulina combined with 2,600 mg of PEA, for a duration of 5 days; next, the same patient was treated with one tablet, comprising 350 mg of spirulina and 650 mg of PEA, administered twice a day, for a daily total of 700 mg of spirulina combined with 1,300 mg of PEA, for a duration of 30 days.

CCCCCCCCCCCCCCCC(=O)NCCO [PEA, Palmitoylethanolamide]
change in tinnitus perceived (declared by patients) [1]: neither the two patients treated with PEA, nor the two patients treated with spirulina showed variations in the tinnitus
Amsler test result after treatment [2]: slight improvement in the Amsler test result
praecordial pain of cardiac origin when stress was increased during the stress ECG ([3]; 45 days): presented praecordial pain of cardiac origin
change in condition / capacity to endure the stress ECG versus before administration ([3]; tablet 4x/day for 15 days then 2x/day for 30 days, added to treatments already underway): no significant changes in condition
nerve conduction assessed with tuning fork and biothesiometer ([4]; 35 days): slight response to the biothesiometry test
neuropathic symptoms / condition ([4]; tablet 4x/day for 5 days then 2x/day for 30 days, PEA 650 mg and/or spirulina 350 mg per tablet): slight improvement in the neuropathic symptoms
glycaemic profile [5]: without any influence on the glycaemic profile
renal functions ([6]; 1 diabetic patient each, tablet 4x/day for 5 days then 2x/day for 30 days, PEA 650 mg and/or spirulina 350 mg per tablet, combination 35% spirulina, 65% PEA): no improvement in renal functions
creatinine value at the end of the treatment ([6]; after 35 days, normal values 0.7 to 1.3 mg/dl, combination 35% spirulina, 65% PEA): 4.4 mg/dL
creatinine value at the beginning of the treatment ([6]; baseline of the treated patient, normal values 0.7 to 1.3 mg/dl): 4.3 mg/dL
